From US20240208909A1, “SUBSTITUTED QUINOLINE DERIVATIVES HAVING SOS1 INHIBITION ACTIVITIES AND USES THEREOF” (Accutar Biotechnology Inc., priority 2022, published 2024)
pIC50: −log10 of the molar value.

Tests used:
[1] = molecular target: SOS1/KRAS-G12D (Homo sapiens (Human), UniProt Q07889); assay: SOS1/KRAS-G12D binding inhibition assay (AlphaScreen); details: GST-SOS1 and 6*His KRAS-G12D, read-out: KrasG12D/SOS1 binding IC50
Procedure, shortened: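 GST-SOS1 (5 nM) pre-incubated 30 min with His6-KRAS-G12D (50 nM) in HEPES pH 7.4, NaCl, DTT, MgCl2, Tween-20, BSA; compound in 2% DMSO then added for 30 min at 4° C. GSH donor and Ni-NTA acceptor AlphaScreen beads, 2 h at 4° C; background-corrected % inhibition versus DMSO, IC50 by variable-slope nonlinear regression.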

[2] = system: Phospho-ERK1/2 in DLD1 cells; assay: Phospho-ERK1/2 expression inhibition in DLD1 cells; type: cell-based; details: Homo sapiens, DLD-1, 4 hours, read-out: DLD1 pERK IC50
Procedure, shortened: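 DLD1 cells (15,000/well) were plated overnight, then exposed to compounds for 4 h at 37 °C. Cells were formaldehyde-fixed and methanol-permeabilized. Phospho-ERK1/2 was detected in-cell with rabbit anti-phospho-ERK1/2 and an IRDye 800CW secondary antibody, imaged on a LI-COR Odyssey.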

[3] = system: K562 cells; assay: Cell growth inhibition of K562 cells (CellTiter-Glo); type: cell-based; details: Homo sapiens, 120 h, 5 days

SOS1/KRAS-G12D, sequence (Q07889 564-1049 limits assumed): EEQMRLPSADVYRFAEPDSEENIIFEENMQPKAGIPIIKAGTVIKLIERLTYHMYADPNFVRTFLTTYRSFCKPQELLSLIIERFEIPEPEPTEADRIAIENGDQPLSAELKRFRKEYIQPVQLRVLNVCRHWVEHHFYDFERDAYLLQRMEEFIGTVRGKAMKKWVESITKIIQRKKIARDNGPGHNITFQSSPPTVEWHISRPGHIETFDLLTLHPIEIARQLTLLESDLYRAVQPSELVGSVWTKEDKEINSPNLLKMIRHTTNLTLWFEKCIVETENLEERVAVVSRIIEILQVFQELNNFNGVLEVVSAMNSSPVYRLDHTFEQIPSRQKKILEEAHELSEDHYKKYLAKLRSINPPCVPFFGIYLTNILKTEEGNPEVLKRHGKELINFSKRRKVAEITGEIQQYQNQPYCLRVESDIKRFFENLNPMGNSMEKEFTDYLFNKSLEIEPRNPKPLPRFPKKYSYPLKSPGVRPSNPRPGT

Compound	pIC50 [1]	pIC50 [2]	GI50 [3]
Cc1c([C@@H](C)Nc2ccnc3ccc(N4CCN(C(=O)C(C)C)CC4)cc23)cccc1C(F)(F)F [Compound 46, (R)-2-methyl-1-(4-(4-((1-(2-methyl-3-(trifluoromethyl)phenyl)ethyl)amino)quinolin-6-yl)piperazin-1-yl)propan-1-one]	7.00 to 8.00	6.30 to 6.82	100 to 500 nM
COc1cc2nccc(N[C@H](C)c3cccc(C(F)(F)F)c3C)c2cc1N1CCN(C(=O)C2COC2)CC1 [Compound 47]	7.00 to 8.00	< 6.30	100 to 500 nM
C[C@@H](Nc1ccnc2ccc(N3CCOCC3)cc12)c1cccc(C(F)F)c1F [Compound 48, (R)-N-(1-(3-(difluoromethyl)-2-fluorophenyl)ethyl)-6-morpholinoquinolin-4-amine]	≥ 8.00	≥ 6.82	≤ 100 nM
C[C@@H](Nc1ccnc2ccc(N3CCC(N)CC3)cc12)c1cccc(C(F)F)c1F [Compound 49, (R)-6-(4-aminopiperidin-1-yl)-N-(1-(3-(difluoromethyl)-2-fluorophenyl)ethyl)quinolin-4-amine]	≥ 8.00	< 6.30	100 to 500 nM
Cc1c([C@@H](C)Nc2ccnc3ccc(N4CCN[C@H](C)C4)cc23)cccc1C(F)(F)F [Compound 50, N-((R)-1-(2-methyl-3-(trifluoromethyl)phenyl)ethyl)-6-((R)-3-methylpiperazin-1-yl)quinolin-4-amine]	7.00 to 8.00	< 6.30	100 to 500 nM
CC(=O)N1CCN(c2ccc3nccc(N[C@H](C)c4cccc(C(F)(F)F)c4C)c3c2)C[C@H]1C [Compound 51, 1-((R)-2-methyl-4-(4-(((R)-1-(2-methyl-3-(trifluoromethyl)phenyl)ethyl)amino)quinolin-6-yl)piperazin-1-yl)ethan-1-one]	7.00 to 8.00	< 6.30	100 to 500 nM
Cc1c([C@@H](C)Nc2ccnc3ccc(N4CCN(CC(F)(F)F)CC4)cc23)cccc1C(F)(F)F [Compound 52, (R)-N-(1-(2-methyl-3-(trifluoromethyl)phenyl)ethyl)-6-(4-(2,2,2-trifluoroethyl)piperazin-1-yl)quinolin-4-amine]	< 7.00	< 6.30	> 500 nM
Cc1c([C@@H](C)Nc2ccnc3ccc(N4CCN(C(=O)C5CCCO5)CC4)cc23)cccc1C(F)(F)F (stereo partly drawn) [Compound 53, (4-(4-(((R)-1-(2-methyl-3-(trifluoromethyl)phenyl)ethyl)amino)quinolin-6-yl)piperazin-1-yl)(tetrahydrofuran-2-yl)methanone]	7.00 to 8.00	< 6.30	100 to 500 nM
Cc1c([C@@H](C)Nc2ccnc3ccc(N4C[C@H](C)NC[C@H]4C)cc23)cccc1C(F)(F)F [Compound 54, 6-((2R,5S)-2,5-dimethylpiperazin-1-yl)-N-((R)-1-(2-methyl-3-(trifluoromethyl)phenyl)ethyl)quinolin-4-amine]	7.00 to 8.00	< 6.30	100 to 500 nM
COc1cc2nccc(N[C@H](C)c3cccc(C(F)(F)F)c3C)c2cc1N1CCNCC1 [Compound 55, (R)-7-methoxy-N-(1-(2-methyl-3-(trifluoromethyl)phenyl)ethyl)-6-(piperazin-1-yl)quinolin-4-amine]	7.00 to 8.00	< 6.30	> 500 nM
Cc1c([C@@H](C)Nc2ccnc3ccc(N4C[C@@H](C)NC[C@@H]4C)cc23)cccc1C(F)(F)F [Compound 56, 6-((2S,5R)-2,5-dimethylpiperazin-1-yl)-N-((R)-1-(2-methyl-3-(trifluoromethyl)phenyl)ethyl)quinolin-4-amine]	7.00 to 8.00	< 6.30	100 to 500 nM
CC(=O)N1C[C@@H](C)N(c2ccc3nccc(N[C@H](C)c4cccc(C(F)(F)F)c4C)c3c2)C[C@@H]1C [Compound 57, 1-((2S,5R)-2,5-dimethyl-4-(4-(((R)-1-(2-methyl-3-(trifluoromethyl)phenyl)ethyl)amino)quinolin-6-yl)piperazin-1-yl)ethan-1-one]	< 7.00	< 6.30	100 to 500 nM
Cc1c([C@@H](C)Nc2ccnc3ccc(N4CC5CC(C4)N5)cc23)cccc1C(F)(F)F [Compound 58, 6-(3,6-diazabicyclo[3.1.1]heptan-3-yl)-N-((R)-1-(2-methyl-3-(trifluoromethyl)phenyl)ethyl)quinolin-4-amine]	7.00 to 8.00	< 6.30	100 to 500 nM
Cc1c([C@@H](C)Nc2ccnc3ccc(N4CC5CCC(C4)N5)cc23)cccc1C(F)(F)F [Compound 59, 6-(3,8-diazabicyclo[3.2.1]octan-3-yl)-N-((R)-1-(2-methyl-3-(trifluoromethyl)phenyl)ethyl)quinolin-4-amine]	7.00 to 8.00	< 6.30	100 to 500 nM
Cc1c([C@@H](C)Nc2ccnc3ccc(N4CCNC[C@@H]4C)cc23)cccc1C(F)(F)F [Compound 60, N-((R)-1-(2-methyl-3-(trifluoromethyl)phenyl)ethyl)-6-((S)-2-methylpiperazin-1-yl)quinolin-4-amine]	7.00 to 8.00	< 6.30	100 to 500 nM
CC(=O)N1CCN(c2ccc3nccc(N[C@H](C)c4cccc(C(F)(F)F)c4C)c3c2)[C@@H](C)C1 [Compound 61, 1-((S)-3-methyl-4-(4-(((R)-1-(2-methyl-3-(trifluoromethyl)phenyl)ethyl)amino)quinolin-6-yl)piperazin-1-yl)ethan-1-one]	< 7.00	< 6.30	> 500 nM
CC(=O)N1CCCN(c2ccc3nccc(N[C@H](C)c4cccc(C(F)(F)F)c4C)c3c2)CC1 [Compound 62, (R)-1-(4-(4-((1-(2-methyl-3-(trifluoromethyl)phenyl)ethyl)amino)quinolin-6-yl)-1,4-diazepan-1-yl)ethan-1-one]	< 7.00	< 6.30	> 500 nM
Cc1c([C@@H](C)Nc2ccnc3ccc(N4CCCNCC4)cc23)cccc1C(F)(F)F [Compound 63, (R)-6-(1,4-diazepan-1-yl)-N-(1-(2-methyl-3-(trifluoromethyl)phenyl)ethyl)quinolin-4-amine]	7.00 to 8.00	< 6.30	> 500 nM
CC(=O)N1C2CC1CN(c1ccc3nccc(N[C@H](C)c4cccc(C(F)(F)F)c4C)c3c1)C2 [Compound 64, 1-(3-(4-(((R)-1-(2-methyl-3-(trifluoromethyl)phenyl)ethyl)amino)quinolin-6-yl)-3,6-diazabicyclo[3.1.1]heptan-6-yl)ethan-1-one]	7.00 to 8.00	< 6.30	> 500 nM
Cc1c([C@@H](C)Nc2ccnc3ccc(N4CCC(N5CCC5)CC4)cc23)cccc1C(F)(F)F [Compound 65, (R)-6-(4-(azetidin-1-yl)piperidin-1-yl)-N-(1-(2-methyl-3-(trifluoromethyl)phenyl)ethyl)quinolin-4-amine]	7.00 to 8.00	< 6.30	> 500 nM
CC(=O)N1C[C@H](C)N(c2ccc3nccc(N[C@H](C)c4cccc(C(F)(F)F)c4C)c3c2)C[C@H]1C [Compound 66, 1-((2R,5S)-2,5-dimethyl-4-(4-(((R)-1-(2-methyl-3-(trifluoromethyl)phenyl)ethyl)amino)quinolin-6-yl)piperazin-1-yl)ethan-1-one]	< 7.00	< 6.30	> 500 nM
Cc1c([C@@H](C)Nc2ccnc3ccc(N4CCNC5(CC5)C4)cc23)cccc1C(F)(F)F [Compound 69, (R)-N-(1-(2-methyl-3-(trifluoromethyl)phenyl)ethyl)-6-(4,7-diazaspiro[2.5]octan-7-yl)quinolin-4-amine]	7.00 to 8.00	< 6.30	100 to 500 nM
CC(=O)N1CCN(c2ccc3nccc(N[C@H](C)c4cccc(C(F)(F)F)c4C)c3c2)CC12CC2 [Compound 70, (R)-1-(7-(4-((1-(2-methyl-3-(trifluoromethyl)phenyl)ethyl)amino)quinolin-6-yl)-4,7-diazaspiro[2.5]octan-4-yl)ethan-1-one]	7.00 to 8.00	< 6.30	100 to 500 nM
COC1(c2ccc3nccc(N[C@H](C)c4cccc(C(F)F)c4F)c3c2)CCN(C(C)=O)CC1 [Compound 72, (R)-1-(4-(4-((1-(3-(difluoromethyl)-2-fluorophenyl)ethyl)amino)quinolin-6-yl)-4-methoxypiperidin-1-yl)ethan-1-one]	≥ 8.00	≥ 6.82	≤ 100 nM
COc1cc2nccc(N[C@H](C)c3cccc(C(F)F)c3F)c2cc1C1(OC)CCN(C(C)=O)CC1 [Compound 73, (R)-1-(4-(4-((1-(3-(difluoromethyl)-2-fluorophenyl)ethyl)amino)-7-methoxyquinolin-6-yl)-4-methoxypiperidin-1-yl)ethan-1-one]	≥ 8.00	< 6.30	> 500 nM
COC(=O)N1CCC(F)(c2cc3c(N[C@H](C)c4cccc(C(F)(F)F)c4C)ccnc3cc2OC)CC1 [Compound 74, Methyl (R)-4-fluoro-4-(7-methoxy-4-((1-(2-methyl-3-(trifluoromethyl)phenyl)ethyl)amino)quinolin-6-yl)piperidine-1-carboxylate]	7.00 to 8.00	6.30 to 6.82	100 to 500 nM
CO[C@@]1(c2ccc3nccc(N[C@H](C)c4cccc(C(F)F)c4F)c3c2)CCN(C(C)=O)C1 [Compound 75, 1-((R)-3-(4-(((R)-1-(3-(difluoromethyl)-2-fluorophenyl)ethyl)amino)quinolin-6-yl)-3-methoxypyrrolidin-1-yl)ethan-1-one]	≥ 8.00	< 6.30	100 to 500 nM
